According to PubChem BioAssay (NCI):
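Test compounds were applied to cells in 96-well plates for 48 hours at 5 doses. TGI: total growth inhibition.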

Assays:
Test in all cases: NCI tumour cell line growth inhibition, 48 h
CCRF-CEM leukemia = tested on: CCRF-CEM leukemia
HCT-15 colon = tested on: HCT-15 colon
TK-10 renal = tested on: TK-10 renal
SN12C renal = tested on: SN12C renal
UACC-257 melanoma = tested on: UACC-257 melanoma
OVCAR-5 ovarian = tested on: OVCAR-5 ovarian
ACHN renal = tested on: ACHN renal
U251 CNS = tested on: U251 CNS
NCI-H460 lung = tested on: NCI-H460 lung
HCC-2998 colon = tested on: HCC-2998 colon
HOP-92 NSCLC = tested on: HOP-92 NSCLC
NCI-H23 lung = tested on: NCI-H23 lung
SW-620 colon = tested on: SW-620 colon
HT29 colon = tested on: HT29 colon
RPMI-8226 leukemia = tested on: RPMI-8226 leukemia
SF-268 CNS = tested on: SF-268 CNS
MDA-N = tested on: MDA-N
LOX IMVI melanoma = tested on: LOX IMVI melanoma
OVCAR-8 ovarian = tested on: OVCAR-8 ovarian
A498 renal = tested on: A498 renal
OVCAR-4 ovarian = tested on: OVCAR-4 ovarian
SNB-19 CNS = tested on: SNB-19 CNS
NCI-H226 lung = tested on: NCI-H226 lung
T-47D breast = tested on: T-47D breast
RXF 393 renal = tested on: RXF 393 renal
SK-OV-3 ovarian = tested on: SK-OV-3 ovarian
HL-60(TB) leukemia = tested on: HL-60(TB) leukemia
CAKI-1 renal = tested on: CAKI-1 renal
SR leukemia = tested on: SR leukemia
MALME-3M melanoma = tested on: MALME-3M melanoma
MDA-MB-231 breast = tested on: MDA-MB-231 breast
UACC-62 melanoma = tested on: UACC-62 melanoma
NCI-H522 lung = tested on: NCI-H522 lung
A549 NSCLC = tested on: A549 NSCLC
SF-539 CNS = tested on: SF-539 CNS
SK-MEL-2 melanoma = tested on: SK-MEL-2 melanoma
OVCAR-3 ovarian = tested on: OVCAR-3 ovarian
K-562 leukemia = tested on: K-562 leukemia
SK-MEL-28 melanoma = tested on: SK-MEL-28 melanoma
HS 578T breast = tested on: HS 578T breast
SF-295 CNS = tested on: SF-295 CNS
KM12 colon = tested on: KM12 colon
SNB-75 CNS = tested on: SNB-75 CNS
MOLT-4 leukemia = tested on: MOLT-4 leukemia
COLO 205 colon = tested on: COLO 205 colon
M14 melanoma = tested on: M14 melanoma
IGROV1 ovarian = tested on: IGROV1 ovarian
DU-145 prostate = tested on: DU-145 prostate
HCT-116 colon = tested on: HCT-116 colon
HOP-62 NSCLC = tested on: HOP-62 NSCLC
PC-3 prostate = tested on: PC-3 prostate
MDA-MB-435 = tested on: MDA-MB-435
SK-MEL-5 melanoma = tested on: SK-MEL-5 melanoma
EKVX NSCLC = tested on: EKVX NSCLC
MCF7 breast = tested on: MCF7 breast
BT-549 breast = tested on: BT-549 breast
786-0 renal = tested on: 786-0 renal
NCI/ADR-RES ovarian = tested on: NCI/ADR-RES ovarian
UO-31 renal = tested on: UO-31 renal

FC(F)(F)c1ccc(C2ON=C(c3ccccc3)N2C23CC4CC(CC(C4)C2)C3)cc1 (stereo not given)
TGI (CCRF-CEM leukemia): > 10 µM
TGI (HCT-15 colon): > 10 µM
TGI (TK-10 renal): > 10 µM
TGI (SN12C renal): > 10 µM
TGI (UACC-257 melanoma): > 10 µM
TGI (OVCAR-5 ovarian): > 10 µM
TGI (ACHN renal): > 10 µM
TGI (U251 CNS): > 10 µM
TGI (NCI-H460 lung): > 10 µM
TGI (HCC-2998 colon): > 10 µM
TGI (HOP-92 NSCLC): > 10 µM
TGI (NCI-H23 lung): > 10 µM
TGI (SW-620 colon): > 10 µM
TGI (HT29 colon): > 10 µM
TGI (RPMI-8226 leukemia): > 10 µM
TGI (SF-268 CNS): > 10 µM
TGI (MDA-N): > 10 µM
TGI (LOX IMVI melanoma): > 10 µM
TGI (OVCAR-8 ovarian): > 10 µM
TGI (A498 renal): > 10 µM
TGI (OVCAR-4 ovarian): > 10 µM
TGI (SNB-19 CNS): > 10 µM
TGI (NCI-H226 lung): > 10 µM
TGI (T-47D breast): > 10 µM
TGI (RXF 393 renal): > 10 µM
TGI (SK-OV-3 ovarian): > 10 µM
TGI (HL-60(TB) leukemia): > 10 µM
TGI (CAKI-1 renal): > 10 µM
TGI (SR leukemia): > 10 µM
TGI (MALME-3M melanoma): > 10 µM
TGI (MDA-MB-231 breast): > 10 µM
TGI (UACC-62 melanoma): > 10 µM
TGI (NCI-H522 lung): > 10 µM
TGI (A549 NSCLC): > 10 µM
TGI (SF-539 CNS): > 10 µM
TGI (SK-MEL-2 melanoma): > 10 µM
TGI (OVCAR-3 ovarian): > 10 µM
TGI (K-562 leukemia): > 10 µM
TGI (SK-MEL-28 melanoma): > 10 µM
TGI (HS 578T breast): > 10 µM
TGI (SF-295 CNS): > 10 µM
TGI (KM12 colon): > 10 µM
TGI (SNB-75 CNS): > 10 µM
TGI (MOLT-4 leukemia): > 10 µM
TGI (COLO 205 colon): > 10 µM
TGI (M14 melanoma): > 10 µM
TGI (IGROV1 ovarian): > 10 µM
TGI (DU-145 prostate): > 10 µM
TGI (HCT-116 colon): > 10 µM
TGI (HOP-62 NSCLC): > 10 µM
TGI (PC-3 prostate): > 10 µM
TGI (MDA-MB-435): > 10 µM
TGI (SK-MEL-5 melanoma): > 10 µM
TGI (EKVX NSCLC): > 10 µM
TGI (MCF7 breast): > 10 µM
TGI (BT-549 breast): > 10 µM
TGI (786-0 renal): > 10 µM
TGI (NCI/ADR-RES ovarian): > 10 µM

CSc1ncnc2c1cnn2Cc1cn(COCCO)nn1
TGI (CCRF-CEM leukemia): > 100 µM
TGI (HCT-15 colon): > 100 µM
TGI (TK-10 renal): > 100 µM
TGI (SN12C renal): > 100 µM
TGI (UACC-257 melanoma): > 100 µM
TGI (OVCAR-5 ovarian): > 100 µM
TGI (ACHN renal): > 100 µM
TGI (U251 CNS): > 100 µM
TGI (NCI-H460 lung): > 100 µM
TGI (UO-31 renal): > 100 µM
TGI (HCC-2998 colon): > 100 µM
TGI (HOP-92 NSCLC): > 100 µM
TGI (NCI-H23 lung): > 100 µM
TGI (SW-620 colon): > 100 µM
TGI (HT29 colon): 55.4 µM
TGI (RPMI-8226 leukemia): > 100 µM
TGI (SF-268 CNS): > 100 µM
TGI (MDA-N): 39.6 µM
TGI (LOX IMVI melanoma): > 100 µM
TGI (A498 renal): > 100 µM
TGI (OVCAR-4 ovarian): > 100 µM
TGI (SNB-19 CNS): > 100 µM
TGI (NCI-H226 lung): > 100 µM
TGI (T-47D breast): > 100 µM
TGI (RXF 393 renal): > 100 µM
TGI (SK-OV-3 ovarian): > 100 µM
TGI (HL-60(TB) leukemia): > 100 µM
TGI (SR leukemia): > 100 µM
TGI (MALME-3M melanoma): > 100 µM
TGI (MDA-MB-231 breast): > 100 µM
TGI (UACC-62 melanoma): > 100 µM
TGI (A549 NSCLC): > 100 µM
TGI (SF-539 CNS): > 100 µM
TGI (SK-MEL-2 melanoma): > 100 µM
TGI (OVCAR-3 ovarian): 59.1 µM
TGI (K-562 leukemia): > 100 µM
TGI (SK-MEL-28 melanoma): > 100 µM
TGI (HS 578T breast): > 100 µM
TGI (KM12 colon): > 100 µM
TGI (COLO 205 colon): > 100 µM
TGI (M14 melanoma): > 100 µM
TGI (IGROV1 ovarian): > 100 µM
TGI (DU-145 prostate): > 100 µM
TGI (HCT-116 colon): > 100 µM
TGI (HOP-62 NSCLC): > 100 µM
TGI (PC-3 prostate): > 100 µM
TGI (MDA-MB-435): 42.3 µM
TGI (SK-MEL-5 melanoma): > 100 µM
TGI (MCF7 breast): > 100 µM
TGI (BT-549 breast): > 100 µM
TGI (786-0 renal): > 100 µM
TGI (NCI/ADR-RES ovarian): > 100 µM
